# Source: US20220170028A1, “NOVEL INTERLEUKIN-2 VARIANTS AND BIFUNCTIONAL FUSION MOLECULES THEREOF” (Cugene Inc, priority 2019, published 2022)
# System: STAT5 phosphorylation in CD4+ Treg cells
# Assay: STAT5 phosphorylation in CD4+ Treg cells, human PBMC assay by FACS
# Format: cell-based
# Conditions: not given
# From the text: (§1) Single amino acid substitutions were introduced to IL-2 at positions corresponding to amino acids interacting with receptor subunit(s) β or γ or βγ. These substitutions were aimed to reduce IL-2 signaling capacity through the intermediate affinity IL-2Rβγ complex and confer signaling specificity from the high affinity IL-2Rαβγ. IL-2 variants containing single amino acid substitutions were examined for their ability to differentially stimulate STAT5 phosphorylation in CD4 positive Treg and Tconv cells. STAT5 is known to be involved in the downstream signaling cascade upon IL-2 binding to the transmembrane IL-2 receptors. The phosphorylation of STAT5 in defined lymphocyte subpopulations was measured using fresh human peripheral blood mononuclear cells (PBMC) and the forkhead transcription factor FOXP3 was used to identify the Treg population in FACS analysis.
# (§2) Briefly, human PBMC were isolated by Ficoll-Hypaque centrifugation from the buffy coat of a healthy donor. PBMC were starved in serum-free MACS buffer at 4° C. for 1 hour. 2×10^5 PBMC were then treated with serial dilutions of test compounds for 30 min at 37° C. Cells were fixed and permeabilized with Foxp3/Transcription Factor Staining Buffer Set (EBIO) by incubating with 1× Foxp3 fixation/permeabilization working solution for 30 minutes and washing with 1× permeabilization buffer. Cells were additionally fixed with Cytofix buffer and permeabilized with Perm Buffer III (BD Biosciences) and then washed. After blocking Fc receptors by adding human TruStain FcX (1:50 dilution), cells were stained with a mixture of anti-CD25-PE, anti-FOXP3-APC, anti-pSTAT5-FITC, and anti-CD4-PerCP-Cy5.5 antibodies at concentrations recommended by the manufacturer for 45 minutes at room temperature. Cells were collected by centrifugation, washed, resuspended in FACS buffer, and analyzed by flow cytometry. The flow cytometry data was gated into CD4+/Foxp3+/CD25^high and CD4+/Foxp3−/CD25^low groups for the Treg and CD4 conventional T cell subsets, respectively. Data are expressed as a percent of pStat5 positive cells in gated population.
Substance,STAT5 phosphorylation activity in Treg cells (in words),maximum possible effect / signaling amplitude of STAT5 phosphorylation in Treg cells
"P-0303: IL-2 Q126E Fc fusion, SEQ ID NO: 90",minimally impacted the pSTAT5 activation potency,–
"P-0860: IL-2 L19D/S125I/Q126E Fc fusion, SEQ ID NO: 300",different levels of potency attenuation,strikingly lower
"P-0590: Tocilizumab IL-2 L19N/S125I/Q126E bivalent fusion, SEQ ID NOs 253 + 267",reduced potency,lower signaling amplitude
"P-0859: IL-2 L19N/S125I/Q126E Fc fusion, SEQ ID NO: 306",different levels of potency attenuation,moderately reduced
"P-0588: Tocilizumab IL-2 D20S/S125I bivalent fusion, SEQ ID NOs 253 + 257",reduced potency,–
"P-0589: Tocilizumab IL-2 D20N/S125I bivalent fusion, SEQ ID NOs 253 + 258",reduced potency,–
"P-0417: IL-2 L19N/Q126E Fc fusion, SEQ ID NO: 103",pronounced reduced potency,–
"P-0536: Tocilizumab IL-2 L19H/S125I/Q126E bivalent fusion, SEQ ID NOs 253 + 255",slightly higher activity than its monomeric equivalent P-0546,–
"P-0863: Fc fusion, 7 amino acid N-terminal deletion of P-0511 IL-2 variant (Table 4H prints L19D), SEQ ID NO: 303",fully retained potency,–
"P-0322: IL-2 D20T/Q126E Fc fusion, SEQ ID NO: 99",pronounced reduced potency,–
"P-0862: Fc fusion, 5 amino acid N-terminal deletion of P-0511 IL-2 variant (Table 4H prints L19D), SEQ ID NO: 302",fully retained potency,–

# System: STAT5 phosphorylation in CD4+ Tconv cells
# Assay: STAT5 phosphorylation in CD4+ Tconv cells, human PBMC assay by FACS
# Format: cell-based
# Conditions: not given
# From the text: as §1, §2
row,Substance,STAT5 phosphorylation activity in CD4+ Tconv cells (in words)
1,"P-0423: IL-2 L19Q Fc fusion, SEQ ID NO: 152",largely retained the biological activity
2,"P-0374: IL-2 L19R Fc fusion, SEQ ID NO: 83",largely retained the biological activity
3,"P-0427: IL-2 L19S Fc fusion, SEQ ID NO: 156",largely retained the biological activity

# System: CD4+ Treg vs CD4+ Tconv cells
# Assay: STAT5 phosphorylation, selectivity / activity profile Treg versus CD4+ Tconv cells, human PBMC
# Format: cell-based
# Conditions: not given
# From the text: as §1, §2
# The S125I substitution was then introduced into wild-type IL-2 or IL-2 variants that already harbored 1 or 2 mutations targeting receptor subunit(s) β or γ or βγ. The resulting IL-2 variants containing isoleucine at position 125 were tested for their ability to stimulate STAT5 phosphorylation in Treg and Tconv cells in comparison with their respective serine counterparts at position 125. Table 7 lists the potency and selectivity of IL-2 variants in Treg cells. The two molecules in the same row of Table 7 share the same other amino acid substitution(s) and differ only at position 125 with either serine or isoleucine.
row,Substance,activity profile / selectivity window Treg over CD4+ Tconv (in words)
1,"P-0303: IL-2 Q126E Fc fusion, SEQ ID NO: 90",modestly improved selective window
2,"P-0695: Tocilizumab IL-2 L19H/S125I/Q126H bivalent fusion, SEQ ID NOs 253 + 309",did not impair the protein activity nor improve the Treg selectivity
3,"P-0698: Tocilizumab IL-2 L19H/S125I/Q126R bivalent fusion, SEQ ID NOs 253 + 311",did not impair the protein activity nor improve the Treg selectivity
4,"P-0697: Tocilizumab IL-2 L19H/S125I/Q126N bivalent fusion, SEQ ID NOs 253 + 310",did not impair the protein activity nor improve the Treg selectivity
5,"P-0700: Tocilizumab IL-2 L19H/S125I/Q126T bivalent fusion, SEQ ID NOs 253 + 307",did not impair the protein activity nor improve the Treg selectivity
6,"P-0699: Tocilizumab IL-2 L19H/S125I/Q126S bivalent fusion, SEQ ID NOs 253 + 312",did not impair the protein activity nor improve the Treg selectivity

# Same assay, conditions: Serine-125 constructs
row,Substance,Treg Selectivity
1,"P-0480: IL-2 L19H/Q126K Fc fusion, SEQ ID NO: 189",Yes
